Experimental data reported in paper PMC5011342, “A high throughput drug screening assay to identify compounds that promote oligodendrocyte differentiation using acutely dissociated and purified oligodendrocyte precursor cells” (BMC Research Notes, 2016).
Where two headings read alike, the source gives them in different places. Non-standard residues stand in square brackets, D forms with d. Residues, ends and D or L forms follow the SMILES beside them. pGlu = O=C1CC[C@@H](C(=O)O)N1; Thz = O=C(O)[C@@H]1CSCN1

What was measured:
[1] = tested on: acutely dissociated and purified rat OPCs; test: Acute OL differentiation assay (MBP expression/cell, immunofluorescent image quantification); format: cell-based; conditions: for activation at 2 µM / activation at 10 µM / activation at 0.4 µM: Rattus norvegicus
In short: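 This acute differentiation assay used purified rat OPCs from postnatal day 6–7 pups, seeded into PDL/laminin-coated 96-well plates in differentiation medium lacking PDGF and FGF. Compounds were applied in quadruplicate after a 1–2 h preincubation at 37 °C, 10 % CO2, with 0.1 % DMSO negative and 40 ng/ml T3 positive controls in eight wells. After fixation on DIV4, anti-MBP immunofluorescence images yielded MBP expression/cell.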

expanded OPCs = test: cells; conditions: for viability at 0.1 µM / viability at 1 µM / viability at 10 µM: Rattus norvegicus, 72 h
In short: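 Toxicity screen: compounds added at 0.1, 1 and 10 µM to PDGF-AA-expanded OPCs in 96-well plates, 3-day incubation at 37 °C, 10% CO2, then alamarBlue 1:10 for 4 h with fluorescence readout. Results set screening doses of 10/2, 2/0.4 or 0.4/0.08 µM.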

[2] = test compound at 2 uM, MBP expression relative to quetiapine, NCC library screen, sheet "All OLga data", read-out: 2 uM (% Quet)
[3] = test compound at 10 uM, MBP expression relative to quetiapine, NCC library screen, sheet "All OLga data", read-out: 10 uM (% Quet)
[4] = alamarBlue viability of expanded OPCs, compound at 0.1 µM, relative to DMSO control
[5] = alamarBlue viability of expanded OPCs, compound at 1 µM, relative to DMSO control
[6] = alamarBlue viability of expanded OPCs, compound at 10 µM, relative to DMSO control
[7] = 2 uM test compound, relative to quetiapine, sheet "All OLga data", read-out: OL differentiation, 2 uM (% Quet)
[8] = 10 uM test compound, relative to quetiapine, sheet "All OLga data", read-out: OL differentiation, 10 uM (% Quet)
[9] = read-out: 0.1 µM (% DMSO), alamarBlue viability of expanded OPCs, compound at 0.1 µM, sheet All Tox data
[10] = read-out: 1 µM (% DMSO), alamarBlue viability of expanded OPCs, compound at 1 µM, sheet All Tox data
[11] = read-out: 10 µM (% DMSO), alamarBlue viability of expanded OPCs, compound at 10 µM, sheet All Tox data
[12] = test compound at 2 uM, NCC library screen, sheet "All OLga data", relative to quetiapine, read-out: 2 uM (% Quet)
[13] = test compound at 10 uM, NCC library screen, sheet "All OLga data", relative to quetiapine, read-out: 10 uM (% Quet)
[14] = read-out: 0.1 µM (% DMSO), alamarBlue viability, NCC library compound at 0.1 µM, sheet "All Tox data"
[15] = read-out: 1 µM (% DMSO), alamarBlue viability, NCC library compound at 1 µM, sheet "All Tox data"
[16] = read-out: 10 µM (% DMSO), alamarBlue viability, NCC library compound at 10 µM, sheet "All Tox data"

Compound | 0.1 µM (% DMSO) (expanded OPCs; [4]) | 1 µM (% DMSO) (expanded OPCs; [5]) | 10 µM (% DMSO) (expanded OPCs; [6]) | activation at 2 µM [1, 7] | activation at 10 µM [1, 8] | viability at 0.1 µM (expanded OPCs; [9]) | viability at 1 µM (expanded OPCs; [10]) | viability at 10 µM (expanded OPCs; [11]) | activation at 2 µM [1, 12] | activation at 10 µM [1, 13] | further results
O=C1NC(=O)C(c2ccccc2)(c2ccccc2)N1 [Phenytoin] | 88.8 % DMSO | 86.9 % DMSO | 83.9 % DMSO | – | – | – | – | – | – | – | activation at 2 µM [1, 2]: -25.2%; activation at 10 µM [1, 3]: -26.2%
CC1=C(C/C=C(\C)CCC[C@H](C)CCC[C@H](C)CCCC(C)C)C(=O)c2ccccc2C1=O [Phylloquinone] | – | – | – | – | – | – | – | – | – | – | 2 uM (% Quet) ([1]; test compound at 2 uM, NCC library screen, sheet "All OLga data", relative to quetiapine): 17.4 % Quet; 10 uM (% Quet) ([1]; test compound at 10 uM, NCC library screen, sheet "All OLga data", relative to quetiapine): -25.4 % Quet; 0.1 µM (% DMSO) (expanded OPCs): 96.6 % DMSO; 1 µM (% DMSO) (expanded OPCs): 89.8 % DMSO; 10 µM (% DMSO) (expanded OPCs): 87.4 % DMSO
CNC(=O)Oc1ccc2c(c1)[C@]1(C)CCN(C)[C@@H]1N2C [Physostigmine] | – | – | – | -4.5% | 0.12% | 105% | 96.7% | 78% | – | – | –
CC(C)(O)[C@@H]1[C@H]2OC(=O)[C@@H]1[C@]1(O)C[C@H]3O[C@]34C(=O)O[C@H]2[C@]14C [Picrotin] | – | – | – | 6.5% | 5.9% | 84.8% | 84.6% | 85.6% | – | – | –
O=C1CC[C@@H](C(=O)N2CSC[C@H]2C(=O)O)N1 [Pidotimod] ([pGlu]-[Thz]-OH) | – | – | – | 7.5% | -1.8% | 96.9% | 105% | 104% | – | – | –
CC[C@@H]1C(=O)OC[C@@H]1Cc1cncn1C [Pilocarpine] | – | – | – | 0.3% | 6.6% | 90.2% | 101% | 90.1% | – | – | –
CC(N/C(=N\C#N)Nc1ccncc1)C(C)(C)C (stereo not drawn) [Pinacidil] | – | – | – | – | – | – | – | – | -0.57% | 26.1% | viability at 0.1 µM (expanded OPCs; [14]): 90.8%; viability at 1 µM (expanded OPCs; [15]): 98.8%; viability at 10 µM (expanded OPCs; [16]): 93.6%
CC(C)NCC(O)COc1cccc2[nH]ccc12 (stereo not drawn) [Pindolol] | 88.9 % DMSO | 89.4 % DMSO | 86.5 % DMSO | – | – | – | – | – | -2.9% | -35.6% | –
CCc1ccc(CCOc2ccc(CC3SC(=O)NC3=O)cc2)nc1 (stereo not drawn) [Pioglitazone] | – | – | – | 13.3% | 55.6% | 96.9% | 120% | 164% | – | – | –
CCN1CCN(C(=O)N[C@@H](C(=O)N[C@@H]2C(=O)N3[C@@H]2SC(C)(C)[C@@H]3C(=O)O)c2ccccc2)C(=O)C1=O [Piperacillin] | 89.0 % DMSO | 88.3 % DMSO | 88.0 % DMSO | – | – | – | – | – | 2% | -7.9% | –
Cc1nc2ccccn2c(=O)c1CCN1CCC(C(=O)c2ccc(F)cc2)CC1 [Pirenperone] | – | – | – | 31.6% | 62.7% | – | – | – | – | – | viability at 0.1 µM (expanded OPCs; [14]): 102%; viability at 1 µM (expanded OPCs; [15]): 92.1%; viability at 10 µM (expanded OPCs; [16]): 83%
c1cnc(N2CCN(Cc3ccc4c(c3)OCO4)CC2)nc1 [Piribedil] | – | – | – | 23.4% | 29.9% | 88.5% | 100% | 103% | – | – | –
CN1C(C(=O)Nc2ccccn2)=C(O)c2ccccc2S1(=O)=O [Piroxicam] | – | – | – | – | – | – | – | – | 12.1% | -2.1% | viability at 0.1 µM (expanded OPCs; [14]): 91.3%; viability at 1 µM (expanded OPCs; [15]): 88.3%; viability at 10 µM (expanded OPCs; [16]): 87.1%
CN1CCC(=C2c3ccccc3CCc3sccc32)CC1 [Pizotyline] | – | – | – | -30.6% | – | 86.7% | 65.3% | 24.6% | – | – | activation at 0.4 µM ([1]; 0.4 uM test compound, relative to quetiapine, sheet "All OLga data", read-out: OL differentiation, 0.4 uM (% Quet)): -8.8%
OC[C@H]1O[C@@H](Oc2cc(O)cc(/C=C/c3ccc(O)cc3)c2)[C@H](O)[C@@H](O)[C@@H]1O [Polydatin] | – | – | – | -15% | -20.9% | 106% | 110% | 113% | – | – | –
C[n+]1ccccc1/C=N/O [Pralidoxime] | – | – | – | – | – | – | – | – | -5% | -3.8% | viability at 0.1 µM (expanded OPCs; [14]): 90.3%; viability at 1 µM (expanded OPCs; [15]): 93.1%; viability at 10 µM (expanded OPCs; [16]): 89.1%
CC[C@H](C)C(=O)O[C@H]1C[C@H](O)C=C2C=C[C@H](C)[C@H](CC[C@@H](O)C[C@@H](O)CC(=O)O)[C@H]21 [Pravastatin] | – | – | – | 8.6% | -87.5% | 113% | 124% | 151% | – | – | –
O=C(C1CCCCC1)N1CC(=O)N2CCc3ccccc3C2C1 (stereo not drawn) [Praziquantel] | 85.2 % DMSO | 85.1 % DMSO | 85.6 % DMSO | – | – | – | – | – | 0.6% | -9.5% | –
CC(=O)OCC(=O)[C@@]1(O)CC[C@H]2[C@@H]3CCC4=CC(=O)C=C[C@]4(C)[C@H]3[C@@H](O)C[C@@]21C [Prednisolone acetate] | 112.3 % DMSO | 112.6 % DMSO | 109.9 % DMSO | – | – | – | – | – | – | – | activation at 2 µM [1, 2]: -3.3%; activation at 10 µM [1, 3]: -37.1%
C[C@]12C=CC(=O)C=C1CC[C@@H]1[C@@H]2[C@@H](O)C[C@@]2(C)[C@H]1CC[C@]2(O)C(=O)COC(=O)CCC(=O)O [Prednisolone hemisuccinate] | – | – | – | – | – | – | – | – | 10.2% | 9.3% | viability at 0.1 µM (expanded OPCs; [14]): 107%; viability at 1 µM (expanded OPCs; [15]): 95%; viability at 10 µM (expanded OPCs; [16]): 94.3%
C[C@]12C=CC(=O)C=C1CC[C@@H]1[C@@H]2[C@@H](O)C[C@@]2(C)[C@H]1CC[C@]2(O)C(=O)CO [Prednisolone] | 117.5 % DMSO | 112.6 % DMSO | 109.9 % DMSO | – | – | – | – | – | -21.9% | -15.7% | –
C[C@]12C=CC(=O)C=C1CC[C@@H]1[C@@H]2C(=O)C[C@@]2(C)[C@H]1CC[C@]2(O)C(=O)CO [Prednisone] | 88.8 % DMSO | 89.0 % DMSO | 86.2 % DMSO | – | – | – | – | – | -4.5% | -47.4% | –
CCCNC(C)C(=O)Nc1ccccc1C (stereo not drawn) [Prilocaine] | 89.7 % DMSO | 89.9 % DMSO | 89.6 % DMSO | – | – | – | – | – | 2.7% | -1.2% | –
COc1cc(NC(C)CCCN)c2ncccc2c1 (stereo not drawn) [Primaquine] | 90.1 % DMSO | 66.2 % DMSO | 32.4 % DMSO | – | – | – | – | – | – | – | activation at 0.4 µM ([1]; read-out: 0.4 uM (% Quet)): -10%; activation at 2 µM ([1]; read-out: 2 uM (% Quet)): -37.5%
